Assays:
[1] = Solubility in water, visual, confirmed by HPLC assay of a saturated solution; assay type: physicochemical; details: thermodynamic from solid
Description: The visual solubility was confirmed by an HPLC assay of a saturated solution.

[2] = Solid state stability of the drug substance, assayed by HPLC; assay type: physicochemical; details: 1 month
Description: The solid state stability of the drug substance was determined by storing approximately 1.0 g of the material in a glass bottle at a) 40° C./75% Relative Humidity (RH), open exposure, for 1 month and b) at 50° C., closed, for 1 month. […] Solubility of the Hydrochloride

With `CN(CCOc1ccc(CC2SC(=O)NC2=O)cc1)c1ccccn1.Cl` (centres unmarked) [Hydrochloride, 5-[4-[2-(N-methyl-N-(2-pyridyl)amino)ethoxy]benzyl]thiazolidine-2,4-dione hydrochloride] the solubility [1] was 25 mg/mL, the “HPLC assay for final content” value ([2]; 40° C./75% RH, open exposure) was 100 % initial and the “degradation products (HPLC)” value ([2]; 40° C./75% RH, open exposure) was “No significant degradation observed”. For the same compound, the “HPLC assay for final content” value ([2]; 50° C., closed) was 101 % initial and the “degradation products (HPLC)” value ([2]; 50° C., closed) was “No significant degradation observed”.

— patent US20070191435A1, “HYDROCHLORIDE SALT OF 5-[4-[2-(N-METHYL-N-(2-PYRIDYL)AMINO)ETHOXY]BENZYL]THIAZOLIDINE-2,4-DIONE” (SmithKline Beecham p.l.c., priority 2000, published 2007)
